Reference: patent US8173133B2, “Acyl pseudodipeptides which carry a functionalized auxiliary arm” (OM Pharma, priority 1999, dated 2012)
≈ marks a conversion by molar mass, not a printed value.

Assays:
[1] = test system: CD83, CD86 surface markers of predendritic cells (DC-6); experiment: dendritic cell differentiation test: CD83, CD86 surface marker expression; type: cell-based, human
Method: The ability of products of the invention to induce maturation of predendritic cells into dendritic cells was assessed. The following parameters were measured: FITC-Dextran conjugate take-up and expression of CD83, CD86 surface markers.
Mononucleated cells of peripheral blood are isolated from buffy coats of healthy donors. Purified monocytes by adherence selection are resuspended in RPMI-1640 medium containing 10% of foetal calf serum (FCS), GM-CSF and IL-4 (10 ng/ml) at a density of 1×10^6 cells/ml. Cells are divided into Petri Dishes (10×10^6 cells per dish) and cultured for 6 days with a change to fresh medium after 3 days. Cells thus obtained are called predendritic cells (DC-6). Maturation of predendritic cells into mature dendritic cells is achieved by incubating cells with diluted solutions of the products or LPS (positive control) for 3 more days (see product section below). At day 9 (DC-9), cells are harvested and analyzed for different indicators of dendritic cell maturation: assessment of CD83, CD86 surface marker expression as well as of their ability to take up FITC-Dextran conjugate. All these parameters are analyzed by an EPICS-XL-MCL model FACS (Coulter Immunology, Hialeah, […]).
Expression of surface markers is given as % of mean fluorescence of LPS-activated cells (positive control); FITC-Dextran conjugate take-up rate is calculated based on take-up of cells maintained in basic medium and is expressed in %.
Solutions are incubated at 37° C. for 20 minutes, subjected to vigorous stirring during 3 minutes and then diluted to 100 μg/ml in RPMI-1640 culture medium and used in diluted state at concentrations ranging from 10 μg/ml to 0.03 μg/ml. Reference Product: E. coli lipopolysaccharide (LPS, DIFCO, Detroit, Mich., U.S.A.), as a 5 mg/ml stock solution in PBS. An intermediate 100 μg/ml solution is prepared in RPMI 1640 culture medium. Concentrations of dilute solutions being tested range from 1 μg/ml to 0.03 μg/ml.
In another series of experiments, all acyl dipeptide-like compounds were freeze-dried and directly redissolved into pyrogen-free water. Different products as well as LPS control are tested at a concentration of 10 μg/ml. Results are given as % of dendritic cells and mean fluorescence value for dextran phagocytosis or CD86 surface marker expression.

[2] = test system: human peripheral blood mononuclear cells; experiment: α TNF production by human peripheral blood mononuclear cells; type: cell-based; settings: for α TNF produced: 18 hours; for α TNF production: up to 100 μg/ml
Method: Mononuclear cells of peripheral blood are recovered from buffy coats of 6 healthy donors. Such buffy coat cells are resuspended and mononuclear cells are isolated by centrifugation on a Ficoll-Paque gradient (Amersham Pharmacia). Purified mononuclear cells are resuspended into RPMI-1640 medium supplemented with 10% FCS, antibiotics, mercaptoethanol and L-glutamine. Cell concentration is adjusted to 2×10^6 viable cells/ml
100 μl of each one of these solutions of acyl dipeptide-like compounds bearing an accessory functional side chain spacer, diluted 100-, 10- or 1-fold in RPMI medium 1640, are dispensed into a microtiter plate. Samples are tested in triplicates, and each microtiter plate includes a negative control made up of plain medium. Dilutions of E. coli LPS (ranging grom 1 to 0.00001 μg/ml) are used as a positive control.
100 μl of the cell suspension are added to each well containing product dilute solutions or control. Cells are incubated with the products for 18 hours in an incubator at 37° C., under 5% CO2 and a moisture saturated atmosphere.
At the end of the incubation period, microtiter plates are centrifuged, and the supernatant fluids are pooled and frozen at −80° C. as aliquots until time of ELISA assay.
Concentration of α TNF secreted by mononuclear cells is determined by chemiluminescent ELISA (QuantiGlo #QTAOO R&D kit). 4-fold supernatant fluid dilutions are dispensed into each well of the microtiter plate to which anti-αTNF antibodies are bound. The microtiter plate is incubated for 4 hours at room temperature. After washing, peroxidase-conjugated anti-human a TNF antibody is added. Following a 2 hour incubation period and thorough washing, a chemiluminescent substrate is added and chemilunescence is read after 20 minutes. α TNF content in the supernatant fluid is determined with respect to a standard curve covering the 7000 to 0.7 pg/ml range.
Results are expressed in pg/ml of α TNF produced. Results derive from an experiment representative of acyl-dipeptide-like compound activity

bone marrow stem cells = experiment: bone marrow stem cell proliferation (XTT); type: cell-based, C57/BL6 mice; settings: for Max amplitude: 7 days, XTT 492 nm; for Min amplitude: blank ± 3× standard deviation; for Max concentration: concentration at maximum amplitude; for EC50 conc: concentration corresponding to 50% of maximum amplitude; for Min concentration: lowest concentration inducing a significant proliferation
Source text: 6-week old male C57/BL6 mice are killed by CO2 inhalation. The hip, femur, tibia and hind leg bones are removed. The marrow is extracted from the bone lumen by injecting Dulbecco's Modified Eagle Medium (DH medium) from the end portions which had been excised. The stem cells are washed and suspended again in DH medium supplemented with 20% foetal calf serum (FCS) The cell concentration is adjusted to 500000 cells/ml.
Products previously dissolved in DH medium supplemented with 20% FCS, amino acids and antibiotics are serially diluted directly into a microtiter plate. The products are tested in triplicate and each microtiter plate includes a negative control containing plain medium. The final volume in each well is 100 μl.
100 μl of the cell suspension are added to diluted solutions of products and the cells are incubated for 7 days in an incubator at 37° C., under 8% CO2 and a moisture saturated atmosphere. Cell proliferation is determined by measuring the […] of a chromogenic substrate XTT (2,3-bis[2-methoxy-4-nitro-5-sulphophenyl]-2H-tetrazolium-5-carboxanilide) in mitochondria of viable cells.
At the end of the incubation period, 50 μl of the XTT substrate solution (1 mg/ml XTT+0.008 mg/ml phenazine methosulfate) are added to each well. After an 8 hour incubation period at 37° C. under 8% CO2 in a moisture saturated incubator, the microtiter plates are read with a spectrophotometer at 492 nm against a reference sample at 690 nm.
Results are expressed as mean value±standard deviation and plotted as a dose versus response curve. Values for a negative control composed of DH medium (mean±standard deviation) are also graphically shown.
From this dose versus response curve, 3 curve variables are computed:
Max: maximum curve amplitude and corresponding concentration
EC50: concentration corresponding to 50% of maximum amplitude
Min: lowest concentration inducing a significant proliferation corresponding to the blank±3× standard deviation value
Concentration values corresponding to EC50 and Min are determined from line segments joining different points on the curve.
If the curve has no plateau phase but an ascending configuration for the highest concentration being tested, a “>” sign is shown before Max and EC50 values.

SMILES	CD86 % CD ([1]; 10 μg/ml, products redissolved in pyrogen-free water, % of dendritic cells) [%]	CD86 Fluorescence ([1]; 10 μg/ml, mean fluorescence value)	concentration inducing an increase in expression of CD83 and CD86 surface markers ([1]; FIGS. 75 & 76) [µg/mL]	α TNF produced ([2]; product 1 μg/ml) [pg/mL]	α TNF produced ([2]; product 10 μg/ml) [pg/mL]	α TNF produced ([2]; product 100 μg/ml) [pg/mL]	Max amplitude (bone marrow stem cells) [O.D]	Min amplitude (bone marrow stem cells)	Max concentration (bone marrow stem cells) [µg/mL]	EC50 conc (bone marrow stem cells) [µg/mL]	Min concentration (bone marrow stem cells) [µg/mL]	α TNF production [2]	concentration at which a significant α TNF production level is induced ([2]; only at this concentration) [µg/mL]
CCCCCCCCCCCC(=O)O[C@H](CCCCCCCCCCC)CC(=O)NC(CCOP(=O)(O)O)C(=O)NCCC[C@H](COC(=O)CCCCCN)NC(=O)C[C@H](O)CCCCCCCCCCC (mixture of isomers) [OM-197-MP-AC (R/S, R), (3RS,9R)-3-[(R)-3-dodecanoyloxytetradecanoylamino]-4oxo-5-aza-9-[(R)-3-hydroxytetradecanoylamino]-decan-10-ol 1-dihydrogen-phosphate(6-aminohexanoate)]	80.0	6.0	0.1	244	156	160	2.12	0.80 O.D	25	3.1 (≈ 2.96 µM)	0.71	–	–
CCCCCCCCCCCC(=O)O[C@H](CCCCCCCCCCC)CC(=O)NC(CCOP(=O)(O)O)C(=O)NCCCC(COC(=O)CCCCCO)NC(=O)C[C@H](O)CCCCCCCCCCC (stereo partly drawn) [OM-197-FV8, 3-[(R)-3-dodecanoyloxytetradecanoylamino]-4-oxo-5-aza-9-[(R)-3-hydroxytetradecanoylamino]-decan-1,10-diol 1-dihydrogenphosphate 10-(6-hydroxyhexanoate)]	–	–	–	12	100	252	1.07	0.80 O.D	25	1.8 (≈ 1.72 µM)	1.24	–	–
CCCCCCCCCCC[C@@H](O)CC(=O)N[C@H](CCCNC(=O)[C@@H](CC(=O)O)NC(C)=O)COC(=O)CCCCCN [OM-197-N′C2-MC-AC, N-acetyl-D-aspartic acid, α-N-{(4R)-5-(6-aminohexanoyloxy)-4-[(R)-3-hydroxytetradecanoylamino]-pentyl}amide]	–	–	–	0	0	0	0.75	0.80/nd O.D	1.56	–	–	do not induce any αTNF production	–
CCCCCCCCCCCC(=O)O[C@H](CCCCCCCCCCC)CC(=O)N[C@H](CC(=O)O)C(=O)NCCC[C@H](COC(=O)CCCCCO)NC(=O)C[C@H](O)CCCCCCCCCCC [OM-197-MC-FV7, N—[(R)-3-dodecanoyloxytetradecanoylamino]-D-aspartic acid, α-N-{(4R)-5-hydroxy-4-[(R)-3-hydroxytetradecanoylamino]pentyl}amide 5-O-(6-hydroxyhexanoate)]	–	–	–	0	80	76	> 1.83	0.80 O.D	> 100	> 33.1	6.58	–	–
CCCCCCCCCCCC(=O)O[C@H](CCCCCCCCCCC)CC(=O)N[C@@H](CCOP(=O)(O)O)C(=O)NCCC[C@H](COC(=O)CCCCCO)NC(=O)C[C@H](O)CCCCCCCCCCC [OM-197-MP-AC (S, R), (3S,9R)-3-[(R)-3-dodecanoyloxytetradecanoylamino]-4-oxo-5-aza-9-[(R)-3-hydroxytetradecanoylamino]-1,10-diol 1-dihydrogenphosphate 10-(6-hydroxyhexanoate)]	–	–	–	488	124	80	1.22	0.80 O.D	6.25	2.62 (≈ 2.5 µM)	1.17	–	–
CCCCCCCCCCCC(=O)O[C@H](CCCCCCCCCCC)CC(=O)N[C@H](CC(=O)O)C(=O)NCCC[C@H](COP(=O)(O)O)NC(=O)C[C@H](O)CCCCCCCCCCC [OM-197-MC-MP, N—[(R)-3-dodecanoyloxytetradecanoyl]-D-aspartic acid, α-N-{(4R)-5-dihydroxyphosphoryloxy-4-[(R)-3-hydroxytetradecanoyl-amino]pentyl}amide]	–	–	–	0	0	72	> 1.60	0.80 O.D	> 160	> 6.5	0.77	–	100
CCCCCCCCCCC[C@@H](O)CC(=O)N[C@H](CCCNC(=O)[C@@H](CC(=O)O)NC(=O)C(CCCCCC)OC(=O)CCCCCCCCC)COC(=O)CCCCCN (stereo partly drawn) [OM-197-N′(C10-20C8)-MC-AC, N-(2-decanoyloxyoctanoyl)-D-aspartic acid, α-N-{(4R)-5-(6-aminohexanoyloxy)-4-[(R)-3-hydroxytetradecanoylamino]-pentyl}amide]	–	–	–	0	0	0	0.75	0.80/nd O.D	6.25	–	–	do not induce any αTNF production	–
CCCCCCCCCCCC(=O)O[C@H](CCCCCCCCCCC)CC(=O)N[C@H](CC(=O)O)C(=O)NCCC[C@H](COC(=O)CCCCCNC(=O)CCC(=O)O)NC(=O)C[C@H](O)CCCCCCCCCCC [OM-197-MC-AC-Succ, N—[(R)-3-dodecanoyloxytetradecanoyl]-D-aspartic acid, α-N-{(4R)-5-(6-succinylamidohexanoxyloxy)-4[(R)-3-hydroxy-tetradecanoylamino]pentyl}amide]	–	–	–	0	32	40	> 1.65	0.80 O.D	> 100	33.7 (≈ 31.2 µM)	2.04	–	–
